Assay results reported in the C3SDB collision cross section collection.
Values belong to the compound of their own block, whether it stands above or below them.

Experiments:
[1] = instrument: DT, stepped-field
[2] = instrument: TW, calibrated with polyalanine
[3] = instrument: DT, stepped-field; remark: listed apart in the source
[4] = instrument: DT, single field, calibrated with Agilent tune mix (Agilent)
[5] = [M+H]+; instrument: TW; calibrated with polyalanine

collision cross section (N2) ([1]; [M+H]+): 130.78 Å²
SMILES: NC(CCS)C(=O)O (racemic) [DL-Homocysteine]

collision cross section (N2) ([1]; [M+H]+): 123.87 Å² | collision cross section (N2) ([1]; [M+Na]+): 132.99 Å² | collision cross section (N2) ([1]; [M-H]-): 120.7 Å² | collision cross section (N2) ([3]; [M+H]+): 123.93 Å² | collision cross section (N2) ([3]; [M+Na]+): 133.41 Å² | collision cross section (N2) ([4]; [M+H]+): 123.4 Å² | collision cross section (N2) ([4]; [M-H]-): 116.68 Å²
SMILES: CN1CC(=O)N=C1N [Creatinine]

collision cross section (N2) ([1]; [M+2H]2+): 340.98 Å² | collision cross section (N2) ([1]; [M+H]+): 307.47 Å²
SMILES: CCC(C)[C@H](NC(=O)[C@H](CC(C)C)NC(=O)[C@H](CC(=O)O)NC(=O)[C@@H](N)CCC(=O)O)C(=O)N[C@@H](C)C(=O)N[C@@H](Cc1ccc(O)cc1)C(=O)N[C@@H](CC(C)C)C(=O)N[C@@H](CCCCN)C(=O)O (some centres undefined) [EDLIAYLK]

collision cross section (N2) ([1]; [M+H]+): 189.27 Å² | collision cross section (N2) ([1]; [M+Na]+): 213.72 Å² | collision cross section (N2) ([4]; [M-H2O-H]-): 182.99 Å²
SMILES: C[C@]12CCC(=O)C=C1CC[C@@H]1[C@@H]2[C@@H](O)C[C@@]2(C)[C@H]1CC[C@]2(O)C(=O)CO [Hydrocortisone]

collision cross section (N2) ([1]; [M+2H]2+): 285.5 Å² | collision cross section (N2) ([1]; [M+H]+): 248.88 Å²
SMILES: CCC(C)[C@H](N)C(=O)N[C@@H](Cc1ccccc1)C(=O)N[C@H](C(=O)N[C@@H](CCC(N)=O)C(=O)N[C@@H](CCCCN)C(=O)O)C(C)C (some centres undefined) [IFVQK]

collision cross section (N2) ([1]; [M-H]-): 120.39 Å²
SMILES: N[C@@H](CC(=O)O)C(=O)O [L-Aspartic acid]

collision cross section (N2) ([1]; [M+H]+): 131.62 Å² | collision cross section (N2) ([3]; [M+H]+): 131.8 Å² | collision cross section (N2) ([4]; [M+H]+): 130.7 Å²
SMILES: NCCCC[C@H](N)C(=O)O [L-Lysine]

collision cross section (N2) ([1]; [M-H]-): 154.82 Å²
SMILES: CCCCCCCCCCCC(=O)O [Lauric acid]

collision cross section (N2) ([1]; [M+2H]2+): 305.66 Å² | collision cross section (N2) ([1]; [M+H]+): 275.34 Å²
SMILES: CCC(C)[C@H](NC(=O)CNC(=O)[C@H](C)NC(=O)[C@H](Cc1ccccc1)NC(=O)[C@@H](NC(=O)[C@@H](N)CCSC)C(C)CC)C(=O)N[C@@H](CCCCN)C(=O)O (some centres undefined) [MIFAGIK]

collision cross section (N2) ([1]; [M+2H]2+): 434.32 Å² | collision cross section (N2) ([1]; [M+3H]3+): 525.02 Å²
SMILES: CCC(C)C(NC(=O)C(Cc1ccc(O)cc1)NC(=O)C1CCCN1C(=O)C(CCCN=C(N)N)NC(=O)C(CCCN=C(N)N)NC(=O)C1CCCN1C(=O)C(CCCCN)NC(=O)C(CC(N)=O)NC(=O)C(CCC(=O)O)NC(=O)C(Cc1ccc(O)cc1)NC(=O)C(CC(C)C)NC(=O)C1CCC(=O)N1)C(=O)NC(CC(C)C)C(=O)O (centres undefined) [Neurotensin]

collision cross section (N2) ([1]; [M-H]-): 169.12 Å² | collision cross section (N2) ([4]; [M+Na]+): 195 Å² | collision cross section (N2) ([4]; [M-H]-): 167.52 Å²
SMILES: CCCCCCCCCCCCCCCC(=O)O [Palmitic acid]

collision cross section (N2) ([3]; [M+H]+): 166.49 Å² | collision cross section (N2) ([3]; [M+Na]+): 177.45 Å² | collision cross section (N2) [5]: 158 Å² | collision cross section (N2) ([4]; [M+Na]+): 172.8 Å²
SMILES: O=c1[nH]c(=O)c2ncn([C@@H]3O[C@H](CO)[C@@H](O)[C@H]3O)c2[nH]1 [Xanthosine]

More lines, now with the values behind:

SMILES: COc1cc2c(c3oc(=O)c4c(c13)CCOC4=O)[C@@H]1CCO[C@@H]1O2 [Aflatoxin G2]
collision cross section (N2) ([2]; [M+H]+): 166 Å² | collision cross section (N2) ([2]; [M+K]+): 181 Å² | collision cross section (N2) ([2]; [M+Na]+): 176.4 Å²

SMILES: CC(=O)OC[C@]12CCC(C)=C[C@H]1O[C@@H]1[C@H](O)[C@@H](OC(C)=O)[C@@]2(C)[C@@]12CO2 [Diacetoxyscirpenol]
collision cross section (N2) ([2]; [M+NH4]+): 192 Å²

SMILES: CC[C@H](C)[C@H]1C(=O)O[C@H](C(C)C)C(=O)N(C)[C@@H](C(C)C)C(=O)O[C@H](C(C)C)C(=O)N(C)[C@@H](C(C)C)C(=O)O[C@H](C(C)C)C(=O)N1C [Enniatin B1]
collision cross section (N2) ([2]; [M+H]+): 246.4 Å² | collision cross section (N2) ([2]; [M+K]+): 254.7 Å² | collision cross section (N2) ([2]; [M+NH4]+): 253 Å² | collision cross section (N2) ([2]; [M+Na]+): 253.4 Å²

SMILES: CC(=O)O[C@@H]1[C@@H](O)[C@H]2O[C@@H]3C=C(C)C(=O)[C@@H](O)[C@]3(CO)[C@]1(C)[C@]21CO1 [Fusarenon X]
collision cross section (N2) ([2]; [M+H3C2O2]-): 195 Å²

SMILES: N[C@H]1C(O)O[C@H](CO)[C@@H](O)[C@@H]1O (some centres undefined) [Glucosamine]
collision cross section (N2) [5]: 135 Å² | collision cross section (N2) ([4]; [M+H-H2O]+): 132.9 Å²

SMILES: CC(=O)OC[C@]12C[C@H](O)C(C)=C[C@H]1O[C@@H]1[C@H](O)[C@@H](OC(C)=O)[C@@]2(C)[C@]12CO2 [Neosolaniol]
collision cross section (N2) ([2]; [M+NH4]+): 198 Å²

SMILES: C=C(C)[C@H]1O[C@H]2CC[C@@]3(C)[C@@](O)(CC[C@H]4[C@@H]5OC(C)(C)[C@H]6C[C@@H]7C(=C)Cc8c(Cl)cc9[nH]c(c5c9c8[C@@]76O)[C@@]43C)[C@]23O[C@@H]3[C@H]1O [Penitrem A]
collision cross section (N2) ([2]; [M+H]+): 253 Å²

SMILES: CC(=O)OC[C@]12C[C@H](OC(=O)CC(C)C)C(C)=C[C@H]1O[C@@H]1[C@H](O)[C@@H](OC(C)=O)[C@@]2(C)[C@]12CO2 [T-2 toxin]
collision cross section (N2) ([2]; [M+NH4]+): 214 Å²

SMILES: NCCS(=O)(=O)O [Taurine]
collision cross section (N2) [5]: 124 Å² | collision cross section (N2) ([4]; [M+H-H2O]+): 135.4 Å²

SMILES: CC(C)C[C@@H]1NC(=O)[C@H](C)N(C)C(=O)CNC(=O)/C(=C/c2ccccc2)N(C)C1=O [Tentoxin]
collision cross section (N2) ([2]; [M+H]+): 202 Å²

SMILES: CC[C@H](C)[C@@H]1NC(=O)C(C(C)=O)=C1O [Tenuazonic acid]
collision cross section (N2) ([2]; [M+H]+): 135 Å²

SMILES: Cc1c[nH]c(=O)[nH]c1=O [Thymine]
collision cross section (N2) ([3]; [M+H]+): 126.14 Å² | collision cross section (N2) [5]: 115 Å² | collision cross section (N2) ([4]; [M+H]+): 121.9 Å² | collision cross section (N2) ([4]; [M-H]-): 117.39 Å²

SMILES: C[C@H]1CCCC(=O)CCC/C=C/c2cc(O)cc(O)c2C(=O)O1 [Zearalenone]
collision cross section (N2) ([2]; [M-H]-): 170 Å²
